Experimental data from patent US20100055218A1, “NOVEL COMPOSITIONS” (priority 2006, published 2010).

Tests used:
[1] = system: RAW267.7; test: Inhibition of PGE2 production in LPS-activated macrophages (EIA); format: cell-based, murine; conditions: Mus musculus, Macrophage; for IC50: read-out: IC50 PGE2
Protocol: (§1) The anti-inflammatory effects of rosehip and ligustilide, hydroxytyrosol, magnolol, and genistein were evaluated in activated macrophages by determining the inhibition of the synthesis of nitric oxide and/or proinflammatory prostaglandins (PG). PGE2 plays a critical role in the inflammation process, while nitric oxide (NO) is a hallmark of inflammation in various chronic inflammatory diseases including various forms of arthritis, gastro-intestinal diseases and metabolic syndrome.
(§2) Biologically standardized rosehip powder was obtained from Hyben Vital International, Langeland, Denmark, and dissolved in DMSO. Ligustilide and genistein was synthesized by DSM Nutritional Products. Hydroxytyrosol was from Cayman Chemicals or synthesized by DSM Nutritional Products. Magnolol was obtained from Apin Chemicals Ltd, UK. According to the suppliers' data sheet all products were >90% pure and obtained in powder form. […] The anti-inflammatory effects of compounds was tested in cellular assays using a murine macrophage indicator cell line, RAW267.7, which was purchased from American Type Culture Collection, (ATCC) and cultured in DMEM according to the protocol provided by ATCC. Cells (˜50'000/well) were seeded into flat-bottomed microtiter plates and cultured for one day. Cells were then starved in complete medium containing 0.25% fetal calf serum (FCS) (D-025). After overnight culture, medium was removed and replaced by 100 μL of D-025 containing the test compounds at twice the final concentration. Subsequently, 100 μL of D-025 containing 2 μg/ml lipopolysaccharide (LPS) was added (i.e. final LPS concentration of 1 μg/ml) and the cells were cultured for 24 hours. Substances were usually tested in a concentration range from 0.2 to 50 μM in two-fold dilution steps. In the case of rosehip extract, the concentration range was from 3-2000 μg/ml. Concentrations of nitrite which was generated from nitric oxide released by cells were determined by the Griess reaction (see e.g Imai et al. Biochem Biophys Res Comm, 197, 105 [1993]) using sodium nitrite as standard. Briefly, 50 μl of supernatant was mixed with Griess reagent 1 (25 μL) and Griess reagent 2 (25 μL), centrifuged and the optical density at 540 nm determined. PGE2 secreted into the cell culture medium was determined by EIA obtained from Cayman Chemicals (Ann Harbor, Wis., USA) and used according to the manufacturer's instructions. IC50 values were calculated using a […] least-square fitting equation [y=A+((B−A)/(1+((C−x)̂D))] for best-fit curves (Excel fit software program).

[2] = system: RAW267.7; test: Inhibition of nitric oxide production in LPS-activated macrophages (nitrite, Griess reaction); format: cell-based, murine; conditions: Mus musculus, Macrophage; for IC50: read-out: IC50 Nitric Oxide
Protocol: as §1, §2

[3] = single substance, LPS 1 μg/ml, 24 hours
[4] = 6.25 μmol/L, read-out: % inhibition of NO production

| Structure (SMILES) | IC50 [1, 3] [µM] | inhibition at 25 µM ([2]; 25 μmol/L, read-out: % inhibition of NO production) [%] | IC50 [2, 3] [µM] | inhibition at 6.25 µM [2, 4] [%] | IC50 ([1]; 24 h) [µM] | inhibition at 6.25 µM ([1]; read-out: % inhibition of PGE2 production) [%] | IC50 ([2]; 24 h) [µM] | inhibition at 6.25 µM ([2]; read-out: % inhibition of NO production) [%] | inhibition at 12.5 µM ([2]; 12.5 μmol/L, read-out: % inhibition of NO production) [%] |
| --- | --- | --- | --- | --- | --- | --- | --- | --- | --- |
| O=c1c(-c2ccc(O)cc2)coc2cc(O)cc(O)c12 [Genistein, 4′,5,7-trihydroxyisoflavone] | 5 ± 1 | 24 | 37 ± 2 | – | – | – | – | – | – |
| CCC/C=C1\OC(=O)C2=C1CCC=C2 [Ligustilide, ligustilide] | 10 ± 2 | – | 15 ± 1 | 5 | – | – | – | – | – |
| C=CCc1ccc(O)c(-c2cc(CC=C)ccc2O)c1 [Magnolol, 5,5′-Diallyl-2,2′-biphenyldiol] | – | – | – | – | 2 ± 1 | 57 | 10 ± 2 | 2 | – |
| OCCc1ccc(O)c(O)c1 [OH-Tyrosol, 3,4 dihydroxyphenylethanol] | 24 ± 3 | – | 28 ± 2 | -5 | – | – | – | – | 9 |
